This note sets out measurements from ChEMBL document CHEMBL4610105, “Microketides A and B, Polyketides from a Gorgonian-Derived Microsphaeropsis sp. Fungus” (J Nat Prod, 2020).

The structures appear in SMILES notation. ≈ marks a conversion by molar mass, not a printed value. Some results are limits rather than exact numbers.

One assay concerns Karenia mikimotoi. Briefly: Anti-phytoplankton activity against Karenia mikimotoi after 96 hrs by fluorometric method. The class given is functional, organism-based.
The subject of the next assay is Bacillus anthracis. Briefly: Antibacterial activity against Bacillus anthracis assessed as reduction in microbial growth after 18 hrs by MTT based broth dilution method. The class given is functional.
Another assay has as its system Tetraselmis helgolandica. The assay can be described thus: Anti-phytoplankton activity against Platymonas helgolandica after 96 hrs by fluorometric method. The class given is functional, organism-based.
The test system of a further assay is Nocardia brasiliensis. Briefly: Antibacterial activity against Nocardia brasiliensis assessed as reduction in microbial growth after 18 hrs by MTT based broth dilution method. The class given is functional. (Dilution methods test growth across graded concentrations, often in twofold steps.)
Assay [1] has as its system Salmonella enterica subsp. enterica serovar Paratyphi B. The assay can be described thus: Antibacterial activity against Salmonella paratyphi B assessed as reduction in microbial growth after 18 hrs by MTT based broth dilution method. The format is functional.
In a further assay the test system is Kocuria rhizophila. The assay can be described thus: Antibacterial activity against Kocuria rhizophila assessed as reduction in microbial growth after 18 hrs by MTT based broth dilution method. The format is functional.
Another assay concerns Heterosigma akashiwo. The assay can be described thus: Anti-phytoplankton activity against Heterosigma akashiwo after 96 hrs by fluorometric method. The class given is functional, organism-based.
A further assay relates to Priestia megaterium. The assay can be described thus: Antibacterial activity against Bacillus megaterium assessed as reduction in microbial growth after 18 hrs by MTT based broth dilution method. The format is functional.
Another assay relates to Colletotrichum truncatum. The assay can be described thus: Antifungal activity against Colletotrichum truncatum assessed as reduction in microbial growth. The format is functional.
For another assay, the system named is Pestalotiopsis calabae. The assay can be described thus: Antifungal activity against Pestalotia calabae assessed as reduction in microbial growth. The format is functional.
The subject of another assay is Candida albicans. The assay can be described thus: Antifungal activity against Candida albicans assessed as reduction in microbial growth. The format is functional.
The test system of a further assay is Isochrysis galbana. The assay can be described thus: Anti-phytoplankton activity against Isochrysis galbana after 96 hrs by fluorometric method. The class given is functional, organism-based.
In the next assay the test system is Proteus vulgaris. The assay can be described thus: Antibacterial activity against Proteus vulgaris assessed as reduction in microbial growth after 18 hrs by MTT based broth dilution method. The class given is functional.
The subject of a further assay is Salmonella typhi. The assay can be described thus: Antibacterial activity against Salmonella typhi assessed as reduction in microbial growth after 18 hrs by MTT based broth dilution method. The class given is functional, Salmonella enterica subsp. enterica serovar Typhi. Conditions: Salmonella enterica.
The nature of assay [2]: Antifungal activity against Gloeosporium musarum assessed as reduction in microbial growth. The class given is functional.
Another assay deals with Pseudomonas aeruginosa. Briefly: Antibacterial activity against Pseudomonas aeruginosa assessed as reduction in microbial growth after 18 hrs by MTT based broth dilution method. The class given is functional.
A further assay deals with Shigella dysenteriae. The assay can be described thus: Antibacterial activity against Shigella dysenteriae assessed as reduction in microbial growth after 18 hrs by MTT based broth dilution method. The format is functional.
For another assay, the system named is Escherichia coli. Briefly: Antibacterial activity against Escherichia coli assessed as reduction in microbial growth after 18 hrs by MTT based broth dilution method. The format is functional.
In the next assay the test system is Bacillus subtilis. The assay can be described thus: Antibacterial activity against Bacillus subtilis assessed as reduction in microbial growth after 18 hrs by MTT based broth dilution method. The format is functional.
The next assay has as its system Micrococcus luteus. Briefly: Antibacterial activity against Micrococcus lysodeikticus assessed as reduction in microbial growth after 18 hrs by MTT based broth dilution method. The class given is functional.
The next assay relates to Vibrio parahaemolyticus. Briefly: Antibacterial activity against Vibrio parahaemolyticus assessed as reduction in microbial growth after 18 hrs by MTT based broth dilution method. The class given is functional.
The test system of another assay is Bacillus cereus. Briefly: Antibacterial activity against Bacillus cereus assessed as reduction in microbial growth after 18 hrs by MTT based broth dilution method. The format is functional.
The test system of another assay is Klebsiella aerogenes. Briefly: Antibacterial activity against Enterobacter aerogenes assessed as reduction in microbial growth after 18 hrs by MTT based broth dilution method. The class given is functional.

The term EC50 denotes the concentration at which the effect is half-maximal. The term MIC denotes the least concentration at which growth counts as inhibited. `CC1=C(Cc2c(C)cccc2O)C(=O)[C@@](C)(O)[C@H](O)C1`: the EC50 was more than 50 mg/L with Karenia mikimotoi, 16.8 mg/L (≈ 60.8 µM) with Tetraselmis helgolandica, more than 50 mg/L in the assay with Heterosigma akashiwo and more than 50 mg/L in the assay with Isochrysis galbana. The MIC in the assay with Bacillus anthracis was found to be 0.39 mg/L; in the assay on Nocardia brasiliensis it was 0.39 mg/L; in assay [1] it was 0.39 mg/L; in the assay on Kocuria rhizophila, 0.39 mg/L; in the assay on Priestia megaterium, 0.19 mg/L; with Colletotrichum truncatum, 3.13 mg/L. For the same compound, the MIC came to 3.13 mg/L with Pestalotiopsis calabae; 3.13 mg/L in the assay with Candida albicans; 1.56 mg/L with Proteus vulgaris; 0.19 mg/L with Salmonella typhi; 3.13 mg/L in assay [2]; 1.56 mg/L in the assay on Pseudomonas aeruginosa. Moreover, the MIC worked out at 6.25 mg/L in the assay on Shigella dysenteriae; 3.13 mg/L with Escherichia coli; 1.56 mg/L in the assay on Bacillus subtilis; 0.78 mg/L in the assay with Micrococcus luteus; 3.13 mg/L in the assay on Vibrio parahaemolyticus; 0.39 mg/L in the assay with Bacillus cereus. Moreover, the MIC with Klebsiella aerogenes is 1.56 mg/L.

On to `CC(=O)N1CCN(c2ccc(OCC3COC(Cn4ccnc4)(c4ccc(Cl)cc4Cl)O3)cc2)CC1` (centres undefined) [KETOCONAZOLE], for which the MIC was found to be 0.19 mg/L in the assay on Colletotrichum truncatum, 0.78 mg/L with Pestalotiopsis calabae, 0.78 mg/L with Candida albicans and 0.39 mg/L in assay [2].

Consider `CC1=C(Cc2c(C)cccc2O)C(=O)[C@@](C)(O)[C@@H](O)C1`, for which the EC50 was more than 50 mg/L with Karenia mikimotoi, 12.3 mg/L (≈ 44.5 µM) with Tetraselmis helgolandica, more than 50 mg/L in the assay with Heterosigma akashiwo and more than 50 mg/L with Isochrysis galbana. In addition, the MIC in the assay on Bacillus anthracis is 0.19 mg/L; in the assay on Nocardia brasiliensis, 0.19 mg/L; in assay [1], 0.19 mg/L; in the assay with Kocuria rhizophila it was 0.19 mg/L; in the assay with Priestia megaterium it was 0.19 mg/L; in the assay on Colletotrichum truncatum it was 1.56 mg/L. Moreover, the MIC stood at 1.56 mg/L in the assay on Pestalotiopsis calabae; 1.56 mg/L with Candida albicans; 0.39 mg/L in the assay with Proteus vulgaris; 0.19 mg/L in the assay with Salmonella typhi; 3.13 mg/L in assay [2]; 0.19 mg/L in the assay with Pseudomonas aeruginosa. Moreover, the MIC in the assay with Shigella dysenteriae is 3.13 mg/L; with Escherichia coli, 1.56 mg/L; in the assay with Bacillus subtilis it was 0.19 mg/L; in the assay on Micrococcus luteus, 0.39 mg/L; in the assay on Vibrio parahaemolyticus it was 0.39 mg/L; in the assay on Bacillus cereus, 0.19 mg/L. Moreover, the MIC in the assay on Klebsiella aerogenes is 0.19 mg/L.

`O=C(O)c1cn(C2CC2)c2cc(N3CCNCC3)c(F)cc2c1=O` [CIPROFLOXACIN]: the MIC with Bacillus anthracis was found to be 0.19 mg/L; in the assay with Nocardia brasiliensis it was 0.19 mg/L; in assay [1], 0.05 mg/L; in the assay on Kocuria rhizophila it was 0.19 mg/L; in the assay on Priestia megaterium it was 0.19 mg/L; with Proteus vulgaris, 0.09 mg/L. Besides, the MIC came out at 0.09 mg/L with Salmonella typhi; 0.19 mg/L in the assay with Pseudomonas aeruginosa; 0.19 mg/L in the assay with Shigella dysenteriae; 0.09 mg/L with Bacillus subtilis; 0.19 mg/L in the assay on Micrococcus luteus; 0.19 mg/L in the assay with Vibrio parahaemolyticus. Further, the values for the MIC in the assay on Bacillus cereus and in the assay with Klebsiella aerogenes were 0.09 mg/L and 0.05 mg/L, respectively.
